{"source": "patent US20240344034A1", "about": "“Renal Progenitor Cells” (The University of Queensland, priority 2013, published 2024)", "molecules": {"B1": {"name": "NOG: BMP antagonist NOG (noggin) (protein, UniProt Q13253 28-232, looked up)", "Noggin": "QHYLHIRPAPSDNLPLVDLIEHPDPIFDPKEKDLNETLLRSLLGGHYDPGFMATSPPEDRPGGGGGAAGGAEDLAELDQLLRQRPSGAMPSEIKGLEFSEGLAQGKKQRLSKKLRRKLQMWLWSQTFCPVLYAWNDLGSRFWPRYVKVGSCFSKRSCSVPEGMVCKPSKSVHLTVLRWRCQRRGGQRCGWIPIQYPIISECKCSC"}, "B2": {"name": "FGF8: FGF family member (protein, UniProt P55075 23-233, looked up)", "Fibroblast growth factor 8": "QEGPGRGPALGRELASLFRAGREPQGVSQQHVREQSLVTDQLSRRLIRTYQLYSRTSGKHVQVLANKRINAMAEDGDPFAKLIVETDTFGSRVRVRGAETGLYICMNKKGKLIAKSNGKGKDCVFTEIVLENNYTALQNAKYEGWYMAFTRKGRPRKGSKTRQHQREVHFMKRLPRGHHTTEQSLRFEFLNYPPFTRSLRGSQRTWAPEPR"}, "B3": {"name": "BMP7: bone morphogenic protein 7 (protein, UniProt P18075 293-431, looked up)", "Bone morphogenetic protein 7": "STGSKQRSQNRSKTPKNQEALRMANVAENSSSDQRQACKKHELYVSFRDLGWQDWIIAPEGYAAYYCEGECAFPLNSYMNATNHAIVQTLVHFINPETVPKPCCAPTQLNAISVLYFDDSSNVILKKYRNMVVRACGCH"}}, "type_in_all_cases": "cell-based, human", "key": {"[1]": {"system": "hESC-induced posterior primitive streak", "experiment": "Intermediate mesoderm (IM) induction from hESC-induced posterior primitive streak (IF, qRT-PCR)", "procedure": "(§1) HES3 (MIXL1^GFP/wt) cells were routinely cultured on irradiated MEF feeder cells in F12/DMEM (Life Technologies) supplemented with 20% KnockOut serum replacement (Life Technologies), 100 μM MEM NEAA (Life Technologies), 110 μM 2-mercaptoethanol (Life Technologies), 1×penicillin/streptomycin (Life Technologies), 1× Glutamax (Life Technologies) and 10 ng/mL bFGF (R&D systems). The day before starting differentiation, cells were plated at 12,000-15,000 cells/cm^2 on a Matrigel coated 96-well plate. After overnight culture, cells were exposed to 30 ng/mL BMP4 (R&D systems) and 10 ng/mL Activin A (R&D systems) or 8 μM CHIR99021 in a previously established serum free media APEL for 2-3 days, then 200 ng/mL FGF9 and 1 μg/mL Heparin in APEL media for 4 days to induce IM cells. Subsequently cells were exposed to 200 ng/mL FGF9, 50 ng/mL BMP7, 0.1 μM RA and 1 μg/mL Heparin for 4-11 days in case of BMP4/Activin A induction. In case of CHIR99021 induction, cells were exposed to 200 ng/mL FGF9 and 1 μg/mL Heparin for 6 days then cultured in APEL basal media for another 6 days. Media was changed every 2 days.\nCells were fixed with 4% Paraformaldehyde in PBS for 10 min at 4° C. followed by a wash with PBS. […]\n(§2) Total RNA was extracted from cells using RNeasy micro kit (QIAGEN) and cDNA was synthesized from >100 ng RNA using Super Script III reverse transcriptase (Life Technologies). Quantitive RT-PCR (qRT-PCR) analyses were performed with Syber Green (Applied Biosystems) by ABI PRISM 7500 real-time PCR machine. […]\nTo quantify the proportion of differentiated cells positive for PAX2^+, LHX1^+, SOX17^+, SIX2^+ or WT1^+, cells were immunofluorescently stained with each antibody together with the nuclear stain, DAPI. The ratio of differentiated cells to total cells was manually counted using Image J in 1 or 2 representative fields per experiment (total 3-5 representative fields from 3 independent experiments, 1-1.5×10^3 cells in total), using an Olympus BX-51 microscope, 10× objective."}, "hESC-derived IM cells": {"system": "hESC-derived IM cells", "experiment": "Differentiation of IM to ureteric epithelium and metanephric mesenchyme/nephron progenitors (IF, PCR)", "conditions": "for production of mesenchyme (HOXD11, SIX2, SIX1, WT1, EYA1 expression): CHIR99021 at 1 μM through Stage 2 and 3 and RA antagonist added", "procedure": "as §1\nCells were fixed with 4% Paraformaldehyde in PBS for 10 min at 4° C. followed by a wash with PBS. Then cells were blocked with 1% BSA, 0.2% milk, 0.3% Triton X/PBS for 1 hr at RT and incubated with primary antibodies overnight at 4° C.\nSecondary antibodies were incubated for 1 hr at RT. The following antibodies and dilutions were used: rabbit anti-PAX2 (1:200, #71-6000, Zymed Laboratories Inc.), goat anti-OSR1 (1:75, #sc-67723, Santa Cruz Biotechnology), goat anti-LHX1 (1:75, #sc-19341, Santa Cruz Biotechnology), mouse anti-TBX6 (1:200, AF4744, R&D systems), goat anti-SOX17 (1:200, #AF1924, R&D systems), rabbit anti-SIX2 (1:200, #11562-1-AP, Proteintech), mouse anti-ECAD (1:200, #610181, BD Biosciences), rabbit anti-WT1 (1:100, #sc-192, Santa Cruz Biotechnology), mouse anti-HOXD11 (1:200, #SAB1403944, Sigma-Aldrich), goat anti-GATA3 (1:200, AF2605, R&D systems), rabbit anti-JAG1 (1:200, #ab7771, Abcam), rabbit anti-CDH6 (1:100, #HPA007047, Sigma Aldrich) and goat anti-SYNPO (1:200, #sc-21537, Santa Cruz Biotechnology). Secondary antibodies were: Alexa-488-conjugated goat anti-rabbit, Alexa-594-conjugated donkey anti-rabbit, Alexa-488-conjugated donkey anti-goat and Alexa-594-conjugated goat anti-mouse (1:250, Life Technologies). Images were taken using Nikon Ti—U microscope or Zeiss LSM 510 Meta UV confocal microscope. […]\nas §2"}, "[2]": {"system": "reporter hESC line, MIXL1GFP/wt", "experiment": "Posterior primitive streak induction from MIXL1-GFP reporter hESC (FACS, qRT-PCR)", "procedure": "as §1, with “Media was changed every 2 days.” left out\nas §2"}}, "data": [{"molecule": "CCN(CC)CCCCNc1ncc2cc(-c3cc(OC)cc(OC)c3)c(NC(=O)NC(C)(C)C)nc2n1", "note": "[PD173074]", "values": [{"measurement": "PAX2 and LHX1 induction in response to FGF2 or FGF9", "setting": "[1]; day 6, FGF 200 ng/ml day 2 to 6", "result": "dramatically inhibited"}]}, {"molecule": "Cc1ccc(C2=CCC(C)(C)c3ccc(C#Cc4ccc(C(=O)O)cc4)cc32)cc1", "note": "[AGN193109]", "values": [{"measurement": "production of mesenchyme (HOXD11, SIX2, SIX1, WT1, EYA1 expression)", "setting": "hESC-derived IM cells", "result": "improved"}]}, {"molecule": "Cc1c[nH]c(-c2cnc(NCCNc3ccc(C#N)cn3)nc2-c2ccc(Cl)cc2Cl)n1", "note": "[CHIR99021]", "values": [{"measurement": "concentration optimal for posterior primitive streak", "setting": "[2]; comparative expression of MIXL1, T, SOX17, 5, 7, 9 μM tested", "result": "> 7", "unit": "µM"}, {"measurement": "cells became GFP+ (MIXL1-GFP positive posterior primitive streak cells)", "setting": "[2]; high BMP4/low Activin A (30/10 ng/mL) or high CHIR99021, 3 days culture, FACS", "result": "approximately 90%"}, {"measurement": "production of mesenchyme (HOXD11, SIX2, SIX1, WT1, EYA1 expression)", "setting": "hESC-derived IM cells", "result": "improved"}, {"measurement": "Stage 1 concentration giving optimal ratio of epithelium to nephron progenitors", "setting": "hESC-derived IM cells; first 2 days in culture, cultured out to day 18, 6 μM better than 8 μM", "result": 6, "unit": "µM"}]}, {"molecule": "B1", "values": [{"measurement": "FOXF1 (LPM marker) expression", "setting": "[1]; NOG together with FGF9 from day 2 to 6, qRT-PCR day 6", "result": "effectively suppressed"}]}, {"molecule": "B2", "values": [{"measurement": "coexpression of OSR1, PAX2 and LHX1 (IM induction)", "setting": "[1]; 200 ng/mL FGF for 4 days", "result": "not"}]}, {"molecule": "B3", "values": [{"measurement": "effect on mesenchyme", "setting": "hESC-derived IM cells; BMP7 together with FGF9 in Stage 3", "result": "slightly improves the mesenchyme"}]}]}
